According to ChEMBL document CHEMBL1146714, “Peptidyl hydroxamic acids as methionine aminopeptidase inhibitors” (Bioorg Med Chem Lett, 2004):

Legend:
[1] = Inhibitory activity against methionine Escherichia coli aminopeptidase (MetAP)
[2] = target: Methionine aminopeptidase 2 (Homo sapiens, UniProt P50579); experiment: Inhibitory activity against Methionine aminopeptidase 2
Chain of Methionine aminopeptidase 2 (P50579 whole entry): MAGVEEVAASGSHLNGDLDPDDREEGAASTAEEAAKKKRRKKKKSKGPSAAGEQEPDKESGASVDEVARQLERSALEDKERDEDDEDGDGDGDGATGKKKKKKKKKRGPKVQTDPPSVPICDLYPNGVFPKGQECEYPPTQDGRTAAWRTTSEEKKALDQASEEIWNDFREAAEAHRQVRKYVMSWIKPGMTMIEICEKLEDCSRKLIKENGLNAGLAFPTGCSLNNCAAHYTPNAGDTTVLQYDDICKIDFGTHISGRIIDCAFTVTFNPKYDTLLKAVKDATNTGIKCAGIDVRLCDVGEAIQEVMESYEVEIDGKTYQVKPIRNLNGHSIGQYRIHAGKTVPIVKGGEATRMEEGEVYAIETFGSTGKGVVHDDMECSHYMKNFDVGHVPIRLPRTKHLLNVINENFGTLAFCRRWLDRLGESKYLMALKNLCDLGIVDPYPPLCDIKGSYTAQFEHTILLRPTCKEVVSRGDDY

Row | Compound | Ki [2] | Ki [1]
1 | CCCC[C@H](N)C(=O)N(O)CCC(=O)NCCc1ccccn1 |  | 48 µM
2 | CSCC[C@H](N)C(=O)N(O)CC(=O)NCCc1ccccn1 |  | 2.5 µM

The next lines start with results.

Row | Ki [2] | Compound | Ki [1]
3 | 164 µM | CCCC[C@H](N)C(=O)N(O)CC(=O)NCCc1ccccn1 | 59 µM
4 | 600 µM | C[C@@H](N)C(=O)N(O)CC(=O)O | 8.8 µM
5 | 1300 µM | CSCC[C@H](N)C(=O)N(O)CC(=O)O | 170 µM
